Publication PMC8596765 (Clinical Pharmacology in Drug Development, 2021)
Entries after “also recorded” stand apart in the source; their conditions may differ. Like-named read-outs stand apart in the source and are kept apart here.

Legend:
HMG‐CoA reductase = details: cited from earlier work
Safety monitoring = format: in vivo, human (healthy subjects); details: for Tolerability: doses administered alone or in combination, healthy subjects
[1] = oral contraceptives, CYP3A substrates; cited from earlier work
CYP3A = details: upadacitinib 30 mg once daily, healthy subjects; cited from earlier work
[2] = format: in vivo, human (healthy subjects)
[3] = cited from earlier work
CYP2D6 = details: following upadacitinib dosing in the cocktail drug interaction study; cited from earlier work
[4] = tested on: breast cancer resistance protein (BCRP); details: in vitro assessments; cited from earlier work
CYP1A2 = details: following upadacitinib dosing in the cocktail drug interaction study; cited from earlier work
[5] = tested on: organic anion transporting polypeptide (OATP) 1B1; details: in vitro assessments, at clinically relevant concentrations; cited from earlier work
CYP2C9 = details: following upadacitinib dosing in the cocktail drug interaction study; cited from earlier work
[6] = format: in vivo, human (healthy subjects); details: for CL/F: N = 12, mean ± SD
[7] = format: in vivo, human (healthy subjects); details: for CL/F / Cmax: N = 24, mean ± SD
BCRP [8] = details: in vitro assessments, at clinically relevant concentrations; cited from earlier work
P‐glycoprotein = details: in vitro assessments; cited from earlier work
OATP1B = test: In vivo transporter inhibition by upadacitinib inferred from statin exposures; set-up: species or system human (healthy subjects); details: upadacitinib 30 mg once daily; no increase in rosuvastatin or atorvastatin exposures
[9] = cited from earlier work; remark: listed apart in the source
BCRP [10] = biological target: T1, BCRP (Homo sapiens, UniProt Q9UNQ0); test: In vivo transporter inhibition by upadacitinib inferred from statin exposures; set-up: species or system human (healthy subjects); details: upadacitinib 30 mg once daily; no increase in rosuvastatin or atorvastatin exposures
T1 sequence (Q9UNQ0 1-655): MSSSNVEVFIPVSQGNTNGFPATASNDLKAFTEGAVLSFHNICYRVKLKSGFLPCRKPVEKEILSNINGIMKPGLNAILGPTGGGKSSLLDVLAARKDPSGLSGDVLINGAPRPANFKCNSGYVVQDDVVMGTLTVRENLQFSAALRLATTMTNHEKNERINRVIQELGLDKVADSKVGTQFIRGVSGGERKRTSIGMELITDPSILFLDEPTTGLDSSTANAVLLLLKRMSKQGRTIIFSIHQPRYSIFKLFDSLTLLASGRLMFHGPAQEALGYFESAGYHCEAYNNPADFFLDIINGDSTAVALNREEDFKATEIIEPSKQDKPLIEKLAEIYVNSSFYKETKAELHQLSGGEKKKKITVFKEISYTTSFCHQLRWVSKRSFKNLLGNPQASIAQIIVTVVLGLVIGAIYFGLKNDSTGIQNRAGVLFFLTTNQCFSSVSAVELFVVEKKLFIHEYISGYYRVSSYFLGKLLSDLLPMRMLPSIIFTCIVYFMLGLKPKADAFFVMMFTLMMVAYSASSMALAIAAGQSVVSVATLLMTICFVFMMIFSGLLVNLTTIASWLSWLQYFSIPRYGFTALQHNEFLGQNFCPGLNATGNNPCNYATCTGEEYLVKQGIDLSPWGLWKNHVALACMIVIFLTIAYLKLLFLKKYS

CYP2C19 = details: following upadacitinib dosing in the cocktail drug interaction study; cited from earlier work
[11] = atorvastatin 10 mg + upadacitinib 30 mg once daily, period 2 day 7, N = 24
[12] = atorvastatin 10 mg alone, period 1 day 1, N = 24
[13] = atorvastatin 10 mg alone, period 1 day 1, N = 24, mean ± SD
[14] = rosuvastatin 5 mg, upadacitinib 30 mg once daily
[15] = upadacitinib 30 mg once daily at steady state
[16] = part 2, period 2 day 6, upadacitinib 30 mg once daily alone
[17] = part 2, period 2 day 7, upadacitinib 30 mg once daily + atorvastatin 10 mg single dose

CC(C)c1nc(NS(C)(=O)=O)nc(-c2ccc(F)cc2)c1/C=C/[C@@H](O)C[C@@H](O)CC(=O)O [N‐desmethyl rosuvastatin]
Inhibitory activity of HMG‐CoA reductase compared to rosuvastatin (HMG‐CoA reductase): minimal inhibitory activity

CC(C)c1c(C(=O)Nc2ccccc2)c(-c2ccccc2)c(-c2ccc(F)cc2)n1CC[C@@H](O)C[C@@H](O)CC(=O)O [atorvastatin]
Tolerability (Safety monitoring): generally well tolerated

C#C[C@]1(O)CC[C@H]2[C@@H]3CCc4cc(O)ccc4[C@H]3CC[C@@]21C [ethinylestradiol]
Effect of upadacitinib on plasma exposures [1]: lack of effect; also recorded: no effect

C#C[C@]1(O)CC[C@H]2[C@@H]3CCC4=CC(=O)CC[C@@H]4[C@H]3CC[C@@]21CC [levonorgestrel]
Effect of upadacitinib on plasma exposures [1]: lack of effect; also recorded: no effect

Cc1ncc2n1-c1ccc(Cl)cc1C(c1ccccc1F)=NC2 [midazolam]
Decrease in AUC when administered with upadacitinib relative to alone (CYP3A): 26% | Decrease in Cmax when administered with upadacitinib relative to alone (CYP3A): 26%

CC(C)c1c(C(=O)Nc2ccccc2O)c(-c2ccccc2)c(-c2ccc(F)cc2)n1CC[C@@H](O)C[C@@H](O)CC(=O)O [ortho‐hydroxyatorvastatin]
t1/2 (arithmetic mean ± standard deviation) [11]: 10.7 ± 2.76 h | t1/2 (harmonic mean ± pseudo-standard deviation) [11]: 10.0 ± 2.60 h | t1/2 (arithmetic mean ± standard deviation) [12]: 12.9 ± 5.76 h | t1/2 (harmonic mean ± pseudo-standard deviation) [12]: 11.1 ± 3.92 h | Ortho‐hydroxyatorvastatin to atorvastatin AUCinf ratio [13]: 1.39 ± 0.499 | Ortho‐hydroxyatorvastatin to atorvastatin AUCt ratio [13]: 1.33 ± 0.492 | tmax (atorvastatin 10 mg alone, period 1 day 1, N = 24, median (minimum-maximum)): 4.0 (2.0‐8.0) h | Cmax (atorvastatin 10 mg single dose + upadacitinib 30 mg once daily, period 2 day 7, N = 24, mean ± SD): 1.54 ± 0.610 ng/mL | Cmax (atorvastatin 10 mg single oral dose alone, period 1 day 1, N = 24, mean ± SD): 1.58 ± 0.716 ng/mL

CC(C)c1nc(N(C)S(C)(=O)=O)nc(-c2ccc(F)cc2)c1/C=C/[C@@H](O)C[C@@H](O)CC(=O)O [rosuvastatin]
AUC(0-inf) ([2]; human, plasma, oral, 5 mg): 22.8 ± 6.69 ng·h/mL | AUC(0-t) ([2]; human, plasma, oral, 5 mg): 17.5 ± 6.53 ng·h/mL | half-life ([2]; human, plasma, oral, 5 mg, t1/2 (arithmetic mean ± standard deviation), rosuvastatin 5 mg alone, period 1 day 1, N = 12): 27.5 h | Cmax ([2]; human, plasma, po, 5 mg): 1.91 ± 0.699 ng/mL | Cmax central value ratio (90%CI) ([2]; rosuvastatin 5 mg with upadacitinib 30 mg once daily versus rosuvastatin alone): 0.77 | AUCinf lower when administered with upadacitinib relative to alone [2, 14]: 33% | Cmax lower when administered with upadacitinib relative to alone [2, 14]: 23% | Intrasubject variability in plasma exposures [3]: ≈ 25% | Tolerability (Safety monitoring): generally well tolerated

CC[C@@H]1CN(C(=O)NCC(F)(F)F)C[C@@H]1c1cnc2cnc3[nH]ccc3n12 [upadacitinib]
Effect on CYP2D6 activity (CYP2D6): No relevant effects | Substrate for BCRP [4]: is a substrate | Effect on CYP1A2 activity (CYP1A2): No relevant effects | Inhibition of OATP1B1 [5]: not expected to inhibit | Effect of upadacitinib on the pharmacokinetics of atorvastatin (upadacitinib 30 mg once daily, atorvastatin 10 mg): no clinically relevant effect | Effect on CYP2C9 activity (CYP2C9): No relevant effects | AUC ([6]; human, plasma, oral, 30 mg): 585 ± 153 ng·h/mL | Cmax ([6]; human, plasma, oral, 30 mg): 73 ± 23.6 ng/mL | concentration at 24 h ([6]; human, plasma, oral, 30 mg): 5.17 ± 1.56 ng/mL | CL/F ([6]; part 1, period 2 day 6, upadacitinib 30 mg once daily alone): 54.6 ± 14.4 L/h | CL/F ([6]; part 1, period 2 day 7, upadacitinib 30 mg once daily + rosuvastatin 5 mg single dose): 55.9 ± 14.7 L/h | Effect of single 5‐mg dose of rosuvastatin on upadacitinib Cmax or AUC [6, 15]: no relevant effect | AUC ([7]; human, plasma, oral, 30 mg): 547 ± 112 ng·h/mL | concentration at 24 h ([7]; human, plasma, oral, 30 mg): 4.3 ± 1.74 ng/mL | CL/F [7, 16]: 57.2 ± 12.3 L/h | Cmax [7, 16]: 76.5 ± 16.1 ng/mL | CL/F [7, 17]: 58.4 ± 11.7 L/h | Cmax [7, 17]: 73.2 ± 17.1 ng/mL | Effect of single 10‐mg dose of atorvastatin on upadacitinib Cmax or AUC [7, 15]: no relevant effect | Inhibition of BCRP (BCRP [8]): not expected to inhibit | Substrate for P‐glycoprotein (P‐glycoprotein): is a substrate | Inhibition of OATP1B in vivo (OATP1B): lack of inhibition | Time to steady state ([9]; once‐daily dosing of the extended‐release formulation): ≤ 4 days | Accumulation in plasma ([9]; repeated once‐daily dosing of the extended‐release formulation): no significant accumulation | Effect of upadacitinib on the pharmacokinetics of rosuvastatin ([2]; upadacitinib 30 mg once daily, rosuvastatin 5 mg): no clinically relevant effect | Tolerability (Safety monitoring): generally well tolerated | Patients reporting constipation (grade 1) (Safety monitoring; during treatment with rosuvastatin and upadacitinib, N = 12): 1 patient | New safety findings (Safety monitoring; upadacitinib alone or with the statins): no new safety findings | Inhibition of BCRP in vivo (BCRP [10]): lack of inhibition | Effect on CYP2C19 activity (CYP2C19): No relevant effects
